Results reported in patent US6527690B2, “Purification of phenyl ester salts” (priority 2000, dated 2003).

Columns and labels:
[1] = Measurement of perhydrolysis rate of formulated beads; details: 5 minutes, 10° C.
Experimental: To determine its perhydrolysis rate, the phenyl ester salt was formulated into beads. The beads were typically formulated using a powder or solid phenyl ester salt with a surfactant and a chelating agent. A typical formulation is shown below: […]
The dry materials were weighed, charged into a one-gallon sigma blade mixer and dry mixed for 1 minute. While mixing, water was added and mixing was continued for about 17.5 minutes. The wet mix bulk density was determined by measuring weight/volume. The material was extruded using the Luwa DG-L I at 90 rpm (using a 0.7 mm/I mm, 19.7% open area die). The extrusion was rounded for 1 minute at 1,350 rpm in the Luwa QJ-230 Marumerizer, followed by drying for 20 minutes at 115° C. in a Luwa MDB-400 fluid bed.
Perhydrolysis rate is the percentage of a phenyl ester salt that has undergone perhydrolysis in a specified period of time and at a specific temperature. For the purposes of these examples, perhydrolysis rate is measured at 5 and 30 minutes intervals at 10° C.
The perhydrolysis rate of a phenyl ester salt is measured by adding a weighed quantity of formulated beads comprising the phenyl ester salt, a reference detergent, and sodium […] monohydrate to a synthetic hard water solution in a chilled dissolution vessel (Sotax Model AT7, modified with a emersion chiller). The solution is maintained at 10° C. and stirred at 150 rpm. […]

[2] = Hydrolysis of phenyl ester salt in water at elevated temperature (water crystallization); assay type: physicochemical
Text: Phenyl ester salts may also be recrystallized from aqueous solutions. At first glance, the use of water (or an alcohol) as a solvent to replace acetic acid typically used for the purification of crude phenyl ester salts is not an obvious choice. Japanese Patent No. 6-306,042 (1995), for example, reports that compounds related to phenyl ester salts in water or alcohol are subject to hydrolysis or solvolysis at elevated temperatures. Indeed, initial work on water crystallization confirmed that phenyl ester salts, such as Compound (1), did undergo hydrolysis at elevated temperatures. Typical losses of Compound (1) were in the range of 5-7.5% at 90° C.

**Q.** Which “Five minute perhydrolysis rate” value ([1]; beads prepared from crystallized Compound (1)) does the source give for “sodium nonanamidohexanoyloxybenzenesulfonate [Compound (1)]” here?
**A.** Its value is 20%.

**Q.** What about the “Five minute perhydrolysis rate” value ([1]; beads prepared from spray-dried Compound (1)) of the same substance?
**A.** The value was 100%.

**Q.** What about the Hydrolysis ([2]; 90° C., operating at a pH range of 4-6) of the same substance?
**A.** Its Hydrolysis is “about 2.2%”.

**Q.** And the “Typical losses by hydrolysis” value ([2]; water crystallization at 90° C., pH not controlled)?
**A.** The value was 5-7.5%.
